Measurements from patent US20220220480A1, “METHODS AND COMPOSITIONS FOR TREATMENT OF NLRP3 IN[…] IL-1BETA DEPENDENT DISORDERS” (priority 2019, published 2022).

Key:
[1] = Imiquimod induced psoriasis-like phenotype, adapted PASI score; type: in vivo, C57BL/6J mice; conditions: day 4 of imiquimod administration, AZ13711265 10 mg/kg intraperitoneally daily; for Erythema score (PASI) / Scaling score (PASI): scale 0-4
Protocol: FIG. 5: 8 weeks old C57BL/6J mice were shaved two days before the experiment. One day before administration of imiquimod and daily for 5 days, mice were intraperitoneally injected with vehicle (60% PEG, 40% PBS) or with the Pak1 inhibitor AZ13711265 (10 mg/kg). Mice were treated in the back daily for 4 days either with Vaseline or with Aldara cream corresponding to 3,125 mg of imiquimod (IMQ) to induce psoriasis-like phenotype. The erythema and scaling was analyzed by an adapted version of the clinical PASI score, 0: none; 1: slight; 2: moderated; 3: strong; 4: very strong phenotype. The total score is the cumulative score of scaling and erythema. Results are expressed as mean±SEM. p-value: *<0.01, ***<0.001, compared to control
Futhermore, we investigated the effect of Pak1 kinase inhibitor on a psoriasis model. Dermal application of imiquimod induced a psoriasis-like phenotype including scaling and erythema that are scored using the PASI score.

[2] = test system: Caspase-1 activation; experiment: FAM-FLICA Caspase-1 activation assay by microscopy in BMDMs; type: cell-based, mouse; conditions: for Block of CNF1-triggered Caspase-1 activity/activation measured using FAM-FLICA: BMDMs, inhibitor 45 min before CNF1 500 ng/mL, 1 μM MCC950, 5 μM IPA-3, 1 μM FRAX597 (FIG. 1b, 2d)
Protocol: Bone-marrow derived macrophages (BMDMs) were extracted from femurs of 6-10 weeks-old BALB/c, C57BL/6J or C57BL/6J KO mice as indicated in the figure legends and were cultured in RPMI GlutaMax medium (Life Technologies) supplemented with 100 ng/mL M-CSF (Premium grade, Miltenyi Biotec), 10% heat-inactivated FBS (Biowest) and 50 μg/mL gentamycin (Life Technologies) at 37° C. in an atmosphere containing 5% CO2. The cells were seeded at a concentration of 10^6 cells per well in a 6-well plate. After 6 days of differentiation, BMDMs were used for experiments. NLRP3, NLRC4, PYRIN, and GSDMD knock-out BMDMs were a kind gift from M. Lamkanfi. […] SiRNAs were transfected in HEK 293T cells or BMDMs during 72 h using Lipofectamine RNAiMAX Reagent (ThermoFisher Scientific) according to the manufacturer instructions. Cells were transfected as indicated in figure legends with siRNAs targeting NLRP3 (L-053455-00, Dharmacon), Rac1 (L-041170-00, Dharmacon), Rac2 (L-041171-01, Dharmacon), Nek7 (J-063266-09, Dharmacon), PAK1 (L-048101-00, Dharmacon), PAK2 (L-040615-00, Dharmacon) or non-targeting control siRNA (D-001810-10, Dharmacon). […] Cells pre-treated with ultrapure LPS for 6 h followed by the addition of Nigericin 504 (Invivogen) or ATP 5 mM (Invivogen) for 30 minutes were used as positive control of NLRP3 inflammasome activation.
Caspase 1 activation was detected using the fluorescent probe FAM-FLICA (ImmunoChemistry Technologies) after 6 h of treatment, according to the manufacturer instructions. After labelling, cells were fixed in 4% paraformaldehyde for 15 min and blocked with 2% TBS-BSA. Cells were incubated with mouse anti-NLRP3 antibody (clone Cryo-2, Adipogen) for 1 hour followed by incubation with secondary antibody TexasRed anti-mouse IgG (TI-2000, Vector Laboratories) and Hoechst (Thermo Fisher Scientific) for 30 minutes. Cells were imaged using Nikon MR confocal microscope. […]
Primary bone marrow derived macrophages (BMDMs) were treated with CNF1 for 6 hours to trigger Caspase-1 activation. […] Cells with dots of FAM-FLICA staining were determined as positive (data not shown). […] To this aim, BMDMs were transfected with a siRNA library targeting mouse NLRs and Caspase-1 activation was monitored as previously described. […]

[3] = test system: IL-1β maturation; experiment: IL-1β maturation by immunoblot in BMDMs treated with LPS and CNF1; type: cell-based, mouse; conditions: 5 μM IPA-3 or 1 μM FRAX597 45 min before CNF1 500 ng/mL and LPS 100 ng/mL 8 h (FIG. 2c)
Protocol: (a-b) BMDMs isolated from BALB/c mice were transfected for 72 h with siRNA targeting either NLRP3, Nek7, Pak1, Pak2 as indicated and non-targeting siRNA were used as control. […] (c) Supernatants and cell lysates were analyzed by immunoblot. […] Active Caspase 1 was stained with FAM-FLICA, analyzed by microscopy and FAM-FLICA positive cells were counted. (n=1000 per conditions). p-value ****<0.0001, compared to the CNF1-treated BMDMs (e) HEK293T cells were transfected with plasmids encoding NLRP3 inflammasome component (myc-NLRP3, ASC-GFP, mCaspase-1) together with Flag-Rac2Q61E (Q61E), myc-Pak1 wild type (WT) or myc-Pak1T423E (T423E) and caspase-1 cleavage was analyzed by immunoblot.
HEK 293T cells were obtained from ATCC (CRL-3216) and maintained according to ATCC instructions. Bone-marrow derived macrophages (BMDMs) were extracted from femurs of 6-10 weeks-old BALB/c, C57BL/6J or C57BL/6J KO mice as indicated in the figure legends and were cultured in RPMI GlutaMax medium (Life Technologies) supplemented with 100 ng/mL M-CSF (Premium grade, Miltenyi Biotec), 10% heat-inactivated FBS (Biowest) and 50 μg/mL gentamycin (Life Technologies) at 37° C. in an atmosphere containing 5% CO2. The cells were seeded at a concentration of 10^6 cells per well in a 6-well plate. After 6 days of differentiation, BMDMs were used for experiments. […]

[4] = test system: E. coli expressing CNF1; experiment: Mouse model of bacteremia with E. coli expressing CNF1; type: in vivo; conditions: BALB/c mice, 48 h after infection
Protocol: Data are expressed as the geometric mean±95 CI *p<0.05.
Mice were injected intravenously with 10^7 CFUs of E. coli as previously described^8. For the determination of bacteremia, blood was collected from the tail vein at the indicated times post-infection, serially diluted in sterile PBS and plated on LB plates containing streptomycin (200 μg/ml) and the plates were incubated for 16 h at 37° C. Injection quality was controlled by plating blood samples obtained from the mice at 5 min after injection. NLRP3 knock-out mice were kindly provided by V. Petrilli and have been previously described^21. Female NLRP3 KO and female congenic WT C57BL/6J littermate mice were injected intravenously with 10^7 CFUs of E. coli and the determination of bacteremia was monitored as previously described^8.
Mice were infected with the same strain and concentration of CNF1 expressing E. coli and the bacteremia was measured on each infected mouse at 0 h, 4 h, 24 h and 48 h.

Compound | Total PASI score (cumulative score of scaling and erythema) [1] | Erythema score (PASI) [1] | Scaling score (PASI) [1] | Block of CNF1-triggered Caspase-1 activity/activation measured using FAM-FLICA [2] | Block of IL-1β maturation in macrophages treated with LPS and CNF1 [3] | other results
CCS(=O)(=O)c1cc(Nc2ncc(F)c(N(C)c3cc(CO)c(C)cc3C)n2)ccc1N1C[C@@H]2C[C@H]1CN2C [AZ13711265] | 3.1 | 1.4 | 1.7 |  |  | 
CCn1c(=O)c(-c2ccc(-c3cncs3)cc2Cl)cc2cnc(Nc3ccc(N4CCN(C)CC4)cc3)nc21 [FRAX597] |  |  |  | sufficient to block | sufficient to block | 
Oc1ccc2ccccc2c1SSc1c(O)ccc2ccccc12 [IPA-3] |  |  |  | sufficient to block | sufficient to block | 
CC(C)(O)c1coc(S(=O)(=O)NC(=O)Nc2c3c(cc4c2CCC4)CCC3)c1 [MCC950] |  |  |  | sufficient to block |  | Animals found positive for bacteria ([4]; MCC950 50 mg/kg IP once a day, control group 0): 56%; Bacterial load compared to control group ([4]; MCC950 50 mg/kg IP): statistically significant higher
CO[C@@H]1C[C@@H](C[C@H]2CC[C@H](C)[C@H]([C@@H](C)C(=O)O)O2)O[C@]2(O[C@](C)([C@H]3CC[C@@](C)([C@@H]4O[C@@H]([C@H]5O[C@@](O)(CO)[C@H](C)C[C@@H]5C)C[C@@H]4C)O3)C[C@H]2C)[C@@H]1C [Nigericin] |  |  |  |  |  | FAM-FLICA positive cells (mean) ([2]; WT BMDMs (FIG. 1b), control condition 2.5%): 15.4%
CC(C)Cn1cnc2c(N)nc3ccccc3c21 [imiquimod] | 6.5 | 3 | 3.5 |  |  | 
